Structures can show the parent of a compound that is named as a salt.

The target of this test is T1, IRAK-4 enzyme (Homo sapiens, UniProt Q9NWZ3).
T1 construct: purchased Millipore, USA
T1 sequence (Q9NWZ3 1-460): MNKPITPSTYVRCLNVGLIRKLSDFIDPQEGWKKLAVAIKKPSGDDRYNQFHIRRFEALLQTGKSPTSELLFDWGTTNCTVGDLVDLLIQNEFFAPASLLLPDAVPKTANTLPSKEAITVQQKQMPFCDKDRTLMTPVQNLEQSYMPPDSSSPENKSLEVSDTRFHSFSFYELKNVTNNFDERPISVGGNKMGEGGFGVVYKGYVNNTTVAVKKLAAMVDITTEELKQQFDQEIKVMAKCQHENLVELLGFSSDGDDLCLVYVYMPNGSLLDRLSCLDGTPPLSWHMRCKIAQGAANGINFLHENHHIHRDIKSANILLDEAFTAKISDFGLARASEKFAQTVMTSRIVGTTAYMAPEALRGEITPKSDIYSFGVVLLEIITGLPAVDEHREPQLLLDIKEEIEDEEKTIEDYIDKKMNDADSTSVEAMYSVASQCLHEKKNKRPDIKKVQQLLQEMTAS
The test is described as follows: IRAK-4 Biochemical Assay (TR-FRET). Conditions: recombinant IRAK-4 kinase, 20 μM ATP. The method, then: Compounds were tested for their potential to inhibit IRAK-4 enzyme in a TR-FRET assay using recombinant IRAK-4 kinase from Millipore, USA. The assay buffer was 50 mM Tris-HCl pH 7.5, 20 mM MgCl2, 1 mM EGTA, 2 mM DTT, 3 mM MnCl2 and 0.01% Tween 20.5 ng of IRAK-4 kinase was used for the assay. After pre-incubation of enzyme with test compound for 30 minutes at room temperature, a substrate mixture containing 100 nM Biotin Histone H3 (Millipore, USA) and 20 μM ATP (Sigma, USA) was added and the reaction was incubated for 30 min. Post incubation, the reaction was stopped by the addition of stop mix containing 40 mM EDTA, 1 nM of Europium-Anti-Phospho-Histone H3 (Ser10) antibody (Perkin Elmer, USA) and 20 nM SureLight Allophycocyanin-Streptavidin (Perkin Elmer, USA). The fluorescence emission at 615 nm and 665 nm were measured at an excitation of 340 nm and the percent inhibition was estimated from the ratio of the fluorescence intensities [(F665/F615)×10000].
The compounds of the present invention were screened in the above mentioned assay and the percent inhibition data is summarized in the Table 1.

Take `Cn1cc2cc(NC(=O)c3cccc(-c4ccc(N)nc4)n3)c(N3CCOCC3)cc2n1` [Example 49, 6′-amino-N-(2-methyl-6-morpholino-2H-indazol-5-yl)-[2,3′-bipyridine]-6-carboxamide]: the inhibition at 0.1 µM (0.1 μM compound) was determined as 96%. In addition, the inhibition at 1 µM (1 μM compound) worked out at 97%.

`Cn1cc2cc(NC(=O)c3cccc(-c4ccnc(N)c4)n3)c(N3CCOCC3)cc2n1` [Example 50, 2′-amino-N-(2-methyl-6-morpholino-2H-indazol-5-yl)-[2,4′-bipyridine]-6-carboxamide hydrochloride]: the inhibition at 0.1 µM (0.1 μM compound) was 86%. Under “1 μM compound”, the inhibition at 1 µM was found to be 95%.

Consider `Cn1cc2cc(NC(=O)c3cccc(-c4cccc(N)n4)n3)c(C3CC3)cc2n1` [Example 51, 6′-amino-N-(6-cyclopropyl-2-methyl-2H-indazol-5-yl)[2,2′-bipyridine]-6-carboxamide hydrochloride], for which the inhibition at 0.1 µM (0.1 μM compound) was 57%. The inhibition at 1 µM (1 μM compound) came to 92%.

Consider `Cn1cc2cc(NC(=O)c3cccc(-c4ccnc(N)c4)n3)c(C3CC3)cc2n1` [Example 52, 2′-amino-N-(6-cyclopropyl-2-methyl-2H-indazol-5-yl)-[2,4′-bipyridine]-6-carboxamide], for which the inhibition at 0.1 µM (0.1 μM compound) is 93%. The inhibition at 1 µM (1 μM compound) is 96%.

`Cn1cc2cc(NC(=O)c3cc(-c4ccc(N)nc4)ccn3)c(N3CCCCC3)cc2n1` [Example 53, 6-amino-N-(2-methyl-6-(piperidin-1-yl)-2H-indazol-5-yl)-[3,4′-bipyridine]-2′-carboxamide hydrochloride]: the inhibition at 0.1 µM (0.1 μM compound) is 0%. The inhibition at 1 µM (1 μM compound) was determined as 13%.

Turning to `O=C(Nc1cc2cn(C3CCNCC3)nc2cc1C1CC1)c1cccc(N2CCC(O)C2)n1` (centres unmarked) [Example 54, N-(6-cyclopropyl-2-(piperidin-4-yl)-2H-indazol-5-yl)-6-(3-hydroxypyrrolidin-1-yl)picolinamide hydrochloride], under “0.1 μM compound”, the inhibition at 0.1 µM amounted to 95%. In addition, the inhibition at 1 µM (1 μM compound) is 96%.

Turning to `O=C(Nc1cc2cn(CCN3CCOCC3)nc2cc1C1CC1)c1cccc(N2CCC(O)C2)n1` (centres unmarked) [Example 55, N-(6-cyclopropyl-2-(2-morpholinoethyl)-2H-indazol-5-yl)-6-(3-hydroxypyrrolidin-1-yl)picolinamide], the inhibition at 0.1 µM (0.1 μM compound) was found to be 92%. In addition, the inhibition at 1 µM (1 μM compound) is 95%.

As for `CN1CCC(n2cc3cc(NC(=O)c4cccc(N5CCC(O)C5)n4)c(C4CC4)cc3n2)CC1` (centres unmarked) [Example 56, N-(6-cyclopropyl-2-(1-methylpiperidin-4-yl)-2H-indazol-5-yl)-6-(3-hydroxypyrrolidin-1-yl)picolinamide hydrochloride], where the note is “0.1 μM compound”, the inhibition at 0.1 µM amounted to 20%. The inhibition at 1 µM (1 μM compound) was determined as 71%.

As to `Cn1cc2cc(NC(=O)c3cccc(N4CC[C@@H](O)C4)n3)c(N3CCCCC3)cc2n1` [Example 57, (R)-6-(3-hydroxypyrrolidin-1-yl)-N-(2-methyl-6-(piperidin-1-yl)-2H-indazol-5-yl)picolinamide], the inhibition at 0.1 µM (0.1 μM compound) came to 96%. Moreover, the inhibition at 1 µM (1 μM compound) came out at 101%.

Take `Cn1cc2cc(NC(=O)c3cccc(N4CC[C@@H](OC(=O)CN)C4)n3)c(N3CCCCC3)cc2n1` [Example 58, (R)-1-(6-((2-methyl-6-(piperidin-1-yl)-2H-indazol-5-yl)carbamoyl)pyridin-2-yl)pyrrolidin-3-yl glycinate 2,2,2-trifluoroacetate]: under “0.1 μM compound”, the inhibition at 0.1 µM was found to be 91%. Further, the inhibition at 1 µM (1 μM compound) worked out at 96%.

Regarding `Cc1ccc(C(=O)Nc2cc3cn(C)nc3cc2N2CCCCC2)nc1N1CCC(O)C1` (centres unmarked) [Example 59, 6-(3-hydroxypyrrolidin-1-yl)-5-methyl-N-(2-methyl-6-(piperidin-1-yl)-2H-indazol-5-yl)picolinamide], the inhibition at 0.1 µM (0.1 μM compound) was determined as 74%. The inhibition at 1 µM (1 μM compound) is 91%.

In the case of `Cc1ccc(C(=O)Nc2cc3cn(C)nc3cc2N2CCCCC2)nc1N1CCC(O)CC1` [Example 60, 6-(4-hydroxypiperidin-1-yl)-5-methyl-N-(2-methyl-6-(piperidin-1-yl)-2H-indazol-5-yl)picolinamide], the inhibition at 0.1 µM (0.1 μM compound) was found to be 73%. Also, the inhibition at 1 µM (1 μM compound) came out at 97%.

For `COCCn1cc2cc(NC(=O)c3cccc(N4CCC(O)C4)n3)c(N3CCCCC3)cc2n1` (centres unmarked) [Example 61, 6-(3-hydroxypyrrolidin-1-yl)-N-(2-(2-methoxyethyl)-6-(piperidin-1-yl)-2H-indazol-5-yl)picolinamide], the inhibition at 0.1 µM (0.1 μM compound) worked out at 94%. In addition, the inhibition at 1 µM (1 μM compound) was determined as 97%.

On to `COc1ccc(C(=O)Nc2cc3cn(C)nc3cc2N2CCCCC2)nc1N1CCC(O)C1` (centres unmarked) [Example 62, 6-(3-hydroxypyrrolidin-1-yl)-5-methoxy-N-(2-methyl-6-(piperidin-1-yl)-2H-indazol-5-yl)picolinamide], for which the inhibition at 0.1 µM (0.1 μM compound) came to 9%. Besides, the inhibition at 1 µM (1 μM compound) came out at 21%.

For the compound `Cn1cc2cc(NC(=O)c3ccnc(N4CCC(O)C4)n3)c(N3CCCCC3)cc2n1` (centres unmarked) [Example 63, 2-(3-hydroxypyrrolidin-1-yl)-N-(2-methyl-6-(piperidin-1-yl)-2H-indazol-5-yl)pyrimidine-4-carboxamide], the inhibition at 0.1 µM (0.1 μM compound) came to 79%. For the setting “1 μM compound”, the inhibition at 1 µM was determined as 96%.

In the case of `O=C(Nc1cc2cn(CCN3CCOCC3)nc2cc1N1CCCCC1)c1cccc(N2CCC(O)C2)n1` (centres unmarked) [Example 64, 6-(3-hydroxypyrrolidin-1-yl)-N-(2-(2-morpholinoethyl)-6-(piperidin-1-yl)-2H-indazol-5-yl)picolinamide], where the note is “0.1 μM compound”, the inhibition at 0.1 µM was 96%. Besides, the inhibition at 1 µM (1 μM compound) was determined as 97%.

Regarding `Cn1cc2cc(NC(=O)c3cncc(N4CCC(O)C4)n3)c(N3CCCCC3)cc2n1` (centres unmarked) [Example 65, 6-(3-hydroxypyrrolidin-1-yl)-N-(2-methyl-6-(piperidin-1-yl)-2H-indazol-5-yl)pyrazine-2-carboxamide], the inhibition at 0.1 µM (0.1 μM compound) stood at 91%. Further, the inhibition at 1 µM (1 μM compound) was determined as 98%.

`Cn1cc2cc(NC(=O)c3cncc(N4CCC(O)C4)n3)c(C3CC3)cc2n1` (centres unmarked) [Example 66, N-(6-cyclopropyl-2-methyl-2H-indazol-5-yl)-6-(3-hydroxypyrrolidin-1-yl)pyrazine-2-carboxamide hydrochloride]: the inhibition at 0.1 µM (0.1 μM compound) was found to be 23%. For the same compound, the inhibition at 1 µM (1 μM compound) turned out to be 75%.

In the case of `Cl.Cn1cc2cc(NC(=O)c3cncc(N4CCC(O)C4)n3)c(N3CCCCC3)cc2n1` (centres unmarked) [Example 67, 6-(3-hydroxypyrrolidin-1-yl)-N-(2-methyl-6-(piperidin-1-yl)-2H-indazol-5-yl)pyrazine-2-carboxamide hydrochloride], the “% inhibition of IRAK-4 activity @0.1 μM” value (0.1 μM compound) is reported as 82%. Moreover, the “% inhibition of IRAK-4 activity @1 μM” value (1 μM compound) is 92%.

For `Cn1cc2cc(NC(=O)c3cccc(N4CCC(O)C4)n3)c(N3CCOCC3)cc2n1` (centres unmarked) [Example 68, 6-(3-hydroxypyrrolidin-1-yl)-N-(2-methyl-6-morpholino-2H-indazol-5-yl)picolinamide], the inhibition at 0.1 µM (0.1 μM compound) worked out at 75%. The inhibition at 1 µM (1 μM compound) worked out at 96%.

For `Cn1cc2cc(NC(=O)c3cc(N4CCC(O)C4)ccn3)c(N3CCCCC3)cc2n1` (centres unmarked) [Example 69, 4-(3-hydroxypyrrolidin-1-yl)-N-(2-methyl-6-(piperidin-1-yl)-2H-indazol-5-yl)picolinamide], under “0.1 μM compound”, the inhibition at 0.1 µM was determined as 7%. In addition, where the note is “1 μM compound”, the inhibition at 1 µM is 9%.

Regarding `Cc1cc2nn(C)cc2cc1NC(=O)c1cccc(N2CCC(O)C2)n1` (centres unmarked) [Example 70, N-(2,6-dimethyl-2H-indazol-5-yl)-6-(3-hydroxypyrrolidin-1-yl)picolinamide], for the setting “0.1 μM compound”, the inhibition at 0.1 µM is 27%. Where the note is “1 μM compound”, the inhibition at 1 µM is 82%.

In the case of `Cn1cc2cc(NC(=O)c3cc(N4CCC(O)C4)ccn3)c(C3CC3)cc2n1` (centres unmarked) [Example 71, N-(6-cyclopropyl-2-methyl-2H-indazol-5-yl)-4-(3-hydroxypyrrolidin-1-yl)picolinamide hydrochloride], the inhibition at 0.1 µM (0.1 μM compound) was determined as 67%. Also, where the note is “1 μM compound”, the inhibition at 1 µM came to 95%.

`Cn1cc2cc(NC(=O)c3ccnc(N4CCC(O)C4)n3)c(C3CC3)cc2n1` (centres unmarked) [Example 72, N-(6-cyclopropyl-2-methyl-2H-indazol-5-yl)-2-(3-hydroxypyrrolidin-1-yl)pyrimidine-4-carboxamide]: the inhibition at 0.1 µM (0.1 μM compound) turned out to be 29%. Moreover, under “1 μM compound”, the inhibition at 1 µM was 86%.

For `Cn1cc2cc(NC(=O)c3ccc(N4CCC(O)C4)cn3)c(N3CCCCC3)cc2n1` (centres unmarked) [Example 73, 5-(3-hydroxypyrrolidin-1-yl)-N-(2-methyl-6-(piperidin-1-yl)-2H-indazol-5-yl)picolinamide], the inhibition at 0.1 µM (0.1 μM compound) came to 10%. Also, the inhibition at 1 µM (1 μM compound) came out at 51%.

Source of the values: patent publication US20180201609A1 (AURIGENE DISCOVERY TECHNOLOGIES LIMITED, priority 2015, published 2018).
